Measurements reported in ChEMBL document CHEMBL1201862, “PubChem BioAssay data set” (2004).
Values joined by “and” are separate entries in the source; they are usually repeats but may differ in a detail not shown here. Identical values can stand only once.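 Dose response: 5 concentrations. Exposure: 48 h. Format: 96-well plates. Endpoint: linear interpolation; highest concentration if not reached. Here, GI50 denotes the concentration required for 50% inhibition of growth.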 Active and inactive are the calls of the source. Cut-off read from the data, not from the text of the source: active = GI50 up to about 1.1 µM and inactive = higher.

Tests used:
Assay in all cases: growth of human tumour cells (NCI), 48 h
Malme-3M = tested on: Malme-3M
HCT-15 = tested on: HCT-15
HL-60 = tested on: HL-60
ACHN = tested on: ACHN
MOLT-4 = tested on: MOLT-4
UACC-257 = tested on: UACC-257
RPMI-8226 = tested on: RPMI-8226
RXF 393 = tested on: RXF 393
SNB-75 = tested on: SNB-75
SW-620 = tested on: SW-620
SK-MEL-28 = tested on: SK-MEL-28
A549 = tested on: A549
PC-3 = tested on: PC-3
UACC-62 = tested on: UACC-62
MDA-MB-231 = tested on: MDA-MB-231
SF-268 = tested on: SF-268
HT-29 = tested on: HT-29
U-251 = tested on: U-251
NCI-H522 = tested on: NCI-H522
786-0 = tested on: 786-0
K562 = tested on: K562
DU-145 = tested on: DU-145
MCF7 = tested on: MCF7
HOP-62 = tested on: HOP-62
BT-549 = tested on: BT-549
NCI/ADR-RES = tested on: NCI/ADR-RES
SF-295 = tested on: SF-295
TK-10 = tested on: TK-10
LOX IMVI = tested on: LOX IMVI
OVCAR-3 = tested on: OVCAR-3
NCI-H226 = tested on: NCI-H226
SN12C = tested on: SN12C
COLO 205 = tested on: COLO 205
CAKI-1 = tested on: CAKI-1
MDA-N = tested on: MDA-N
OVCAR-4 = tested on: OVCAR-4
OVCAR-8 = tested on: OVCAR-8
SK-OV-3 = tested on: SK-OV-3
OVCAR-5 = tested on: OVCAR-5
KM12 = tested on: KM12
HOP-92 = tested on: HOP-92
A498 = tested on: A498
UO-31 = tested on: UO-31
IGROV-1 = tested on: IGROV-1
M14 = tested on: M14
SR = tested on: SR
HCT-116 = tested on: HCT-116
SF-539 = tested on: SF-539
NCI-H460 = tested on: NCI-H460
SK-MEL-5 = tested on: SK-MEL-5
NCI-H23 = tested on: NCI-H23
CCRF-CEM = tested on: CCRF-CEM
HCC 2998 = tested on: HCC 2998
SNB-19 = tested on: SNB-19
SK-MEL-2 = tested on: SK-MEL-2
Hs-578T = tested on: Hs-578T
MDA-MB-435 = tested on: MDA-MB-435
EKVX = tested on: EKVX
T47D = tested on: T47D

CC/C(Cl)=N\OC(=O)Nc1ccc(F)c([N+](=O)[O-])c1
GI50 (Malme-3M): 2.13 µM (inactive) | GI50 (HCT-15): 6.44 µM | GI50 (HL-60): 2.39 µM (inactive) | GI50 (ACHN): 1.92 µM (inactive) | GI50 (MOLT-4): 2.72 µM (inactive) | GI50 (UACC-257): 17.6 µM (inactive) | GI50 (RPMI-8226): 2.94 µM (inactive) | GI50 (RXF 393): 16.7 µM (inactive) | GI50 (SNB-75): 18.2 µM (inactive) | GI50 (SW-620): 4.15 µM (inactive) | GI50 (SK-MEL-28): 16.6 µM (inactive) | GI50 (A549): 20.5 µM (inactive) | GI50 (PC-3): 17.3 µM (inactive) | GI50 (UACC-62): 17.3 µM (inactive) | GI50 (MDA-MB-231): 18.2 µM (inactive) | GI50 (SF-268): 16.9 µM (inactive) | GI50 (HT-29): 24.9 µM (inactive) | GI50 (U-251): 21.5 µM (inactive) | GI50 (NCI-H522): 1.93 µM (inactive) | GI50 (786-0): 6.64 µM (inactive) | GI50 (K562): 3.05 µM (inactive) | GI50 (DU-145): 19.5 µM (inactive) | GI50 (MCF7): 8.81 µM (inactive) | GI50 (HOP-62): 19.6 µM (inactive) | GI50 (BT-549): 16.7 µM (inactive) | GI50 (NCI/ADR-RES): 26.9 µM (inactive) | GI50 (SF-295): 20.7 µM (inactive) | GI50 (TK-10): 11.6 µM (inactive) | GI50 (LOX IMVI): 15.6 µM (inactive) | GI50 (OVCAR-3): 5.08 µM (inactive) | GI50 (NCI-H226): 33.3 µM (inactive) | GI50 (SN12C): 17.5 µM (inactive) | GI50 (COLO 205): 2.78 µM (inactive) | GI50 (CAKI-1): 2.85 µM (inactive) | GI50 (MDA-N): 17.7 µM (inactive) | GI50 (OVCAR-4): 4.99 µM (inactive) | GI50 (OVCAR-8): 16.6 µM (inactive) | GI50 (SK-OV-3): 19.1 µM (inactive) | GI50 (OVCAR-5): 22.7 µM (inactive) | GI50 (KM12): 17.5 µM (inactive) | GI50 (HOP-92): 5.14 µM (inactive) | GI50 (A498): 19.9 µM (inactive) | GI50 (UO-31): 6.03 µM (inactive) | GI50 (IGROV-1): 17.9 µM (inactive) | GI50 (M14): 10.3 µM (inactive) | GI50 (SR): > 39.5 µM (inactive) | GI50 (HCT-116): 7 µM (inactive) | GI50 (SF-539): 5.32 µM (inactive) | GI50 (NCI-H460): 3.73 µM (inactive) | GI50 (SK-MEL-5): 12.4 µM (inactive) | GI50 (NCI-H23): 13.8 µM (inactive) | GI50 (CCRF-CEM): 2.59 µM (inactive) | GI50 (HCC 2998): 29.4 µM (inactive) | GI50 (SNB-19): 17.5 µM (inactive) | GI50 (SK-MEL-2): 17 µM (inactive) | GI50 (Hs-578T): 17.4 µM (inactive) | GI50 (MDA-MB-435): 16.3 µM (inactive) | GI50 (EKVX): 19.2 µM (inactive)

COc1ccc(-c2c(C#N)c(O)n(C3OC(COC(C)=O)C(OC(C)=O)C(OC(C)=O)C3OC(C)=O)c(=S)c2C#N)cc1 (stereo not drawn)
GI50 (HCT-15): > 100 µM | GI50 (HL-60): 22.2 µM (inactive) and 24.5 µM (inactive) | GI50 (ACHN): 48.6 µM (inactive) and 54.8 µM (inactive) | GI50 (RXF 393): 32.1 µM (inactive) and 26 µM (inactive) | GI50 (SNB-75): 26.5 µM (inactive) and 18.9 µM (inactive) | GI50 (SW-620): > 100 µM (inactive) | GI50 (A549): > 100 µM (inactive) | GI50 (PC-3): 44.3 µM (inactive) and 66.5 µM (inactive) | GI50 (UACC-62): 26 µM (inactive) and 25.7 µM (inactive) | GI50 (SF-268): 25.1 µM (inactive) and 27.9 µM (inactive) | GI50 (HT-29): > 100 µM (inactive) | GI50 (786-0): 31.7 µM (inactive) and 34 µM (inactive) | GI50 (DU-145): 84.5 µM (inactive) | GI50 (MCF7): > 100 µM (inactive) | GI50 (HOP-62): 31.6 µM (inactive) and 27 µM (inactive) | GI50 (BT-549): 32.7 µM (inactive) and 24.8 µM (inactive) | GI50 (NCI/ADR-RES): > 100 µM (inactive) | GI50 (T47D): 21.5 µM (inactive) and 30.3 µM (inactive) | GI50 (TK-10): 31.6 µM (inactive) and 36.8 µM (inactive) | GI50 (LOX IMVI): 93.1 µM (inactive) and 51.5 µM (inactive) | GI50 (NCI-H226): > 100 µM (inactive) and 72.8 µM (inactive) | GI50 (SN12C): 94.8 µM (inactive) and 67 µM (inactive) | GI50 (CAKI-1): 31.4 µM (inactive) and 19.1 µM (inactive) | GI50 (OVCAR-4): 29.1 µM (inactive) and 43.7 µM (inactive) | GI50 (OVCAR-8): 28.4 µM (inactive) and 36.6 µM (inactive) | GI50 (SK-OV-3): 33.9 µM (inactive) and 28.6 µM (inactive) | GI50 (OVCAR-5): > 100 µM (inactive) | GI50 (KM12): 65.9 µM (inactive) | GI50 (HOP-92): 19 µM (inactive) and 17.8 µM (inactive) | GI50 (A498): 30.3 µM (inactive) and 32.1 µM (inactive) | GI50 (UO-31): 33.4 µM (inactive) and 26.1 µM (inactive) | GI50 (M14): > 100 µM (inactive) | GI50 (HCT-116): 64 µM (inactive) and 67.3 µM (inactive) | GI50 (SF-539): 55.2 µM (inactive) and 36.1 µM (inactive) | GI50 (NCI-H460): 68.7 µM (inactive) and 37.6 µM (inactive) | GI50 (NCI-H23): 97.5 µM (inactive) and 79.4 µM (inactive) | GI50 (CCRF-CEM): > 100 µM (inactive) and 67.8 µM (inactive) | GI50 (HCC 2998): 26.5 µM (inactive) and 25.1 µM (inactive) | GI50 (Hs-578T): 30.7 µM (inactive) and 32.1 µM (inactive) | GI50 (EKVX): 25.9 µM (inactive) and 37.3 µM (inactive)

Cc1nn(C(=O)c2ccccc2O)c2c1C(c1ccc(O)cc1O)SC(=N)N2 (stereo not drawn)
GI50 (Malme-3M): > 10 µM (inactive) | GI50 (HCT-15): 3.66 µM | GI50 (HL-60): 5.52 µM (inactive) | GI50 (ACHN): 4.75 µM (inactive) | GI50 (MOLT-4): 3.48 µM (inactive) | GI50 (RPMI-8226): 2.89 µM (inactive) | GI50 (RXF 393): 5.52 µM (inactive) | GI50 (SNB-75): 2.48 µM (inactive) | GI50 (SW-620): 5.04 µM (inactive) | GI50 (SK-MEL-28): 8.91 µM (inactive) | GI50 (A549): 4.76 µM (inactive) | GI50 (PC-3): 3.22 µM (inactive) | GI50 (UACC-62): 1.89 µM (inactive) | GI50 (MDA-MB-231): 5.14 µM (inactive) | GI50 (SF-268): 4.75 µM (inactive) | GI50 (HT-29): > 10 µM (inactive) | GI50 (U-251): 5.58 µM (inactive) | GI50 (786-0): 6.85 µM (inactive) | GI50 (K562): 2.63 µM (inactive) | GI50 (DU-145): 8.28 µM (inactive) | GI50 (MCF7): 0.472 µM (active) | GI50 (HOP-62): 3.02 µM (inactive) | GI50 (BT-549): 2.52 µM (inactive) | GI50 (NCI/ADR-RES): 3.33 µM (inactive) | GI50 (SF-295): > 10 µM (inactive) | GI50 (TK-10): > 10 µM (inactive) | GI50 (LOX IMVI): 4.6 µM (inactive) | GI50 (OVCAR-3): 2.96 µM (inactive) | GI50 (NCI-H226): 1.32 µM (inactive) | GI50 (SN12C): 9.71 µM (inactive) | GI50 (COLO 205): 9.35 µM (inactive) | GI50 (CAKI-1): 4.29 µM (inactive) | GI50 (MDA-N): 5.78 µM (inactive) | GI50 (OVCAR-4): 2.94 µM (inactive) | GI50 (OVCAR-8): 6.04 µM (inactive) | GI50 (SK-OV-3): 3.6 µM (inactive) | GI50 (OVCAR-5): 1.04 µM (active) | GI50 (KM12): 6.19 µM (inactive) | GI50 (HOP-92): 3.67 µM (inactive) | GI50 (A498): 3.61 µM (inactive) | GI50 (UO-31): 2.84 µM (inactive) | GI50 (IGROV-1): 3.48 µM (inactive) | GI50 (M14): 3.61 µM (inactive) | GI50 (SR): 6.67 µM (inactive) | GI50 (HCT-116): 3.83 µM (inactive) | GI50 (SF-539): 3.77 µM (inactive) | GI50 (NCI-H460): 4.6 µM (inactive) | GI50 (SK-MEL-5): 4.12 µM (inactive) | GI50 (NCI-H23): 3.98 µM (inactive) | GI50 (CCRF-CEM): 3.05 µM (inactive) | GI50 (SNB-19): 4.86 µM (inactive) | GI50 (SK-MEL-2): > 10 µM (inactive) | GI50 (Hs-578T): 1.91 µM (inactive) | GI50 (MDA-MB-435): 4.05 µM (inactive) | GI50 (EKVX): 8.11 µM (inactive)
